According to PubChem BioAssay AID328 (DTP/NCI, 2004):
Several values for one entry are separate records, joined by “and”; a condition that tells them apart may be missing. Identical values can stand only once. Toxic doses and inconclusive results are not listed. The calls were made as follows: active = survival T/C of 150% or more; inactive = T/C below 125% in these data.

System: BDF1 mice, P388 leukemia ip, median survival T/C
Assay: NCI In Vivo Anticancer Drug Screen. Data for tumor model P388 Leukemia (intraperitoneal) in B6D2F1 (BDF1) mice
Details: endpoint: median survival time, higher = longer survival
Summary of the method: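 Antitumour effect was judged in vivo: survival in drug-treated mice, normalised to that of vehicle-dosed controls, gives the reported T/C.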

[1] = dose: 6.25 mg/kg/injection, schedule: Q01DX009 (ip), vehicle: saline
[2] = dose: 12.5 mg/kg/injection, schedule: Q01DX009 (ip), vehicle: saline
[3] = dose: 25.0 mg/kg/injection, schedule: Q01DX009 (ip), vehicle: saline
[4] = dose: 25.0 mg/kg/injection, schedule: Q04DX003 (ip), vehicle: saline
[5] = dose: 50.0 mg/kg/injection, schedule: Q01DX009 (ip), vehicle: saline
[6] = dose: 12.5 mg/kg/injection, schedule: Q04DX003 (ip), vehicle: saline
[7] = dose: 50.0 mg/kg/injection, schedule: Q04DX003 (ip), vehicle: saline
[8] = dose: 50.0 mg/kg/injection, schedule: Q01DX009 (ip), vehicle: saline with Tween-80
[9] = dose: 100.0 mg/kg/injection, schedule: Q01DX009 (ip), vehicle: saline with Tween-80
[10] = dose: 200.0 mg/kg/injection, schedule: Q01DX009 (ip), vehicle: saline with Tween-80
[11] = dose: 6.25 mg/kg/injection, schedule: Q01DX009 (ip), vehicle: Klucel (hydroxypropylcellulose) (HPC)
[12] = dose: 12.5 mg/kg/injection, schedule: Q01DX009 (ip), vehicle: Klucel (hydroxypropylcellulose) (HPC)
[13] = dose: 3.12 mg/kg/injection, schedule: Q01DX009 (ip), vehicle: saline
[14] = dose: 100.0 mg/kg/injection, schedule: Q04DX003 (ip), vehicle: saline

Measured: T/C

O=C1NC(c2ccccc2)(c2ccccc2)C(=O)N1CCS
inactive: [1] 89 % of control and 122 % of control | [2] 104 % of control and 107 % of control | [3] 106 % of control and 116 % of control | [4] 98 % of control | [5] 95 % of control and 105 % of control

COc1ccc(CC2C(=O)NC(C)C(=O)N(C)C3Cc4ccc(cc4)Oc4cc(ccc4O)CC(C(=O)NC(C)C(=O)NC(C)C(=O)N2C)N(C)C3=O)cc1 (configuration not stated)
active: dose: 0.04 mg/kg/injection, schedule: Q01DX009 (ip), vehicle: saline 163 % of control | dose: 0.07 mg/kg/injection, schedule: Q01DX009 (ip), vehicle: saline 181 % of control | dose: 0.11 mg/kg/injection, schedule: Q01DX009 (ip), vehicle: saline with Tween-80 196 % of control | dose: 0.11 mg/kg/injection, schedule: Q01DX009 (ip), vehicle: saline 163 % of control | dose: 0.16 mg/kg/injection, schedule: Q01DX009 (ip), vehicle: saline with Tween-80 216 % of control | dose: 0.25 mg/kg/injection, schedule: Q01DX009 (ip), vehicle: saline with Tween-80 160 % of control and 186 % of control | dose: 0.5 mg/kg/injection, schedule: Q01DX009 (ip), vehicle: saline with Tween-80 186 % of control | dose: 1.0 mg/kg/injection, schedule: Q01DX009 (ip), vehicle: saline with Tween-80 189 % of control | dose: 2.0 mg/kg/injection, schedule: Q01DX009 (ip), vehicle: saline with Tween-80 208 % of control | dose: 4.32 mg/kg/injection, schedule: Q04DX003 (ip), vehicle: other 161 % of control and 212 % of control | dose: 7.2 mg/kg/injection, schedule: Q04DX003 (ip), vehicle: other 163 % of control and 208 % of control
inactive: dose: 10.0 micrograms/kg/injection, schedule: Q01DX009 (ip), vehicle: saline with Tween-80 108 % of control | dose: 20.0 micrograms/kg/injection, schedule: Q01DX009 (ip), vehicle: saline with Tween-80 108 % of control | dose: 40.0 micrograms/kg/injection, schedule: Q01DX009 (ip), vehicle: saline with Tween-80 119 % of control

O=c1[nH]c2ccc(I)cc2c(=O)o1
inactive: dose: 100.0 mg/kg/injection, schedule: Q04DX003 (ip), vehicle: saline with Tween-80 109 % of control | dose: 200.0 mg/kg/injection, schedule: Q04DX003 (ip), vehicle: saline with Tween-80 104 % of control | dose: 400.0 mg/kg/injection, schedule: Q04DX003 (ip), vehicle: saline with Tween-80 109 % of control

CCOCCN1CCN(CCCN2c3ccccc3Sc3ccc(C(F)(F)F)cc32)CC1
inactive: dose: 6.25 mg/kg/injection, schedule: Q04DX003 (ip), vehicle: saline 107 % of control and 112 % of control | [6] 116 % of control | [7] 101 % of control

CS(=O)CC(O)(c1ccccc1)c1cccnc1 (configuration not stated)
inactive: [8] 103 % of control | [9] 92 % of control | [10] 107 % of control

N#CCc1ccc([N+](=O)[O-])cc1
inactive: [11] 100 % of control | [12] 91 % of control | dose: 12.5 mg/kg/injection, schedule: Q04DX003 (ip), vehicle: Klucel (hydroxypropylcellulose) (HPC) 104 % of control | dose: 25.0 mg/kg/injection, schedule: Q04DX003 (ip), vehicle: Klucel (hydroxypropylcellulose) (HPC) 117 % of control

CCOC(=O)N1N(C(=O)c2ccccc2)C(=O)CC1(C)C
inactive: dose: 200.0 mg/kg/injection, schedule: Q01DX001 (ip), vehicle: other 100 % of control | dose: 400.0 mg/kg/injection, schedule: Q01DX001 (ip), vehicle: other 109 % of control

CC1CCCCN1CCNc1ccc(CO)c2sc3ccccc3c(=O)c12 (configuration not stated)
active: [9] 192 % of control and 210 % of control | dose: 150.0 mg/kg/injection, schedule: Q01DX009 (ip), vehicle: saline with Tween-80 278 % of control
inactive: dose: 25.0 mg/kg/injection, schedule: Q01DX009 (ip), vehicle: saline with Tween-80 115 % of control | dose: 44.0 mg/kg/injection, schedule: Q01DX009 (ip), vehicle: saline with Tween-80 119 % of control | [8] 119 % of control | [10] 97 % of control

NC1CC[N-]CC1.NC1CC[N-]CC1.[Cl][Pt+2]([Cl])([Cl])[Cl]
inactive: [13] 109 % of control | [1] 100 % of control and 118 % of control | [2] 108 % of control | [3] 120 % of control | [5] 111 % of control

CCOC(=O)CCN1CC(C)OC(C)C1 (configuration not stated)
inactive: dose: 100.0 mg/kg/injection, schedule: Q01DX009 (ip), vehicle: saline 100 % of control | dose: 200.0 mg/kg/injection, schedule: Q01DX009 (ip), vehicle: saline 109 % of control | dose: 400.0 mg/kg/injection, schedule: Q01DX009 (ip), vehicle: saline 100 % of control

O=C1c2ccccc2C(=O)C1C(C[N+](=O)[O-])c1ccccc1 (configuration not stated)
inactive: dose: 25.0 mg/kg/injection, schedule: Q01DX005 (ip), vehicle: saline with Tween-80 118 % of control | dose: 50.0 mg/kg/injection, schedule: Q01DX005 (ip), vehicle: saline with Tween-80 99 % of control

N[C@H](C(=O)O)[C@@H]1CC(Cl)=NO1
inactive: [13] 95 % of control | dose: 3.12 mg/kg/injection, schedule: Q04DX003 (ip), vehicle: saline 113 % of control | [1] 90 % of control | dose: 16.0 mg/kg/injection, schedule: Q01DX009 (ip), vehicle: saline 118 % of control | dose: 32.0 mg/kg/injection, schedule: Q01DX009 (ip), vehicle: saline 91 % of control | dose: 50.0 mg/kg/injection, schedule: Q04DX003 (ip), vehicle: water 117 % of control | [14] 101 % of control
active: dose: 0.39 mg/kg/injection, schedule: Q01DX009 (ip), vehicle: saline 150 % of control | dose: 0.78 mg/kg/injection, schedule: Q01DX009 (ip), vehicle: saline 175 % of control | dose: 1.0 mg/kg/injection, schedule: Q01DX009 (ip), vehicle: saline 183 % of control | dose: 1.56 mg/kg/injection, schedule: Q01DX009 (ip), vehicle: saline 175 % of control | dose: 2.0 mg/kg/injection, schedule: Q01DX009 (ip), vehicle: saline 193 % of control | dose: 4.0 mg/kg/injection, schedule: Q01DX009 (ip), vehicle: saline 220 % of control | dose: 8.0 mg/kg/injection, schedule: Q01DX009 (ip), vehicle: saline 250 % of control | [6] 174 % of control | dose: 21.6 mg/kg/injection, schedule: Q04DX003 (ip), vehicle: saline 169 % of control | [4] 220 % of control | [7] 231 % of control | dose: 200.0 mg/kg/injection, schedule: Q04DX003 (ip), vehicle: water 209 % of control | dose: 400.0 mg/kg/injection, schedule: Q04DX003 (ip), vehicle: water 196 % of control

CCOC(=O)C(c1ccccc1)c1ccccc1
inactive: dose: 100.0 mg/kg/injection, schedule: Q04DX003 (ip), vehicle: other 100 % of control | dose: 200.0 mg/kg/injection, schedule: Q04DX003 (ip), vehicle: other 95 % of control | dose: 400.0 mg/kg/injection, schedule: Q04DX003 (ip), vehicle: other 90 % of control

CC(CCl)OC(C)CCl (configuration not stated)
inactive: dose: 100.0 mg/kg/injection, schedule: Q04DX002 (ip), vehicle: saline 106 % of control | dose: 200.0 mg/kg/injection, schedule: Q04DX002 (ip), vehicle: saline 107 % of control | dose: 400.0 mg/kg/injection, schedule: Q04DX002 (ip), vehicle: saline 107 % of control

O=C1NC(c2ccccc2)(c2ccccc2)C(=O)N1SC(Cl)(Cl)Cl
inactive: dose: 3.12 mg/kg/injection, schedule: Q01DX009 (ip), vehicle: Klucel (hydroxypropylcellulose) (HPC) 123 % of control | [11] 120 % of control | [12] 120 % of control | dose: 25.0 mg/kg/injection, schedule: Q01DX009 (ip), vehicle: Klucel (hydroxypropylcellulose) (HPC) 117 % of control | dose: 50.0 mg/kg/injection, schedule: Q01DX009 (ip), vehicle: Klucel (hydroxypropylcellulose) (HPC) 106 % of control

COC(=O)C1CCCCC1NC(C)=O (configuration not stated)
inactive: [14] 95 % of control | dose: 200.0 mg/kg/injection, schedule: Q04DX003 (ip), vehicle: saline 100 % of control | dose: 400.0 mg/kg/injection, schedule: Q04DX003 (ip), vehicle: saline 91 % of control

COc1cc2c(cc1OC)C(CNC(=O)/C=C/c1ccccc1)C2 (configuration not stated)
inactive: dose: 100.0 mg/kg/injection, schedule: Q01DX001 (ip), vehicle: Klucel (hydroxypropylcellulose) (HPC) 115 % of control | dose: 200.0 mg/kg/injection, schedule: Q01DX001 (ip), vehicle: Klucel (hydroxypropylcellulose) (HPC) 110 % of control | dose: 400.0 mg/kg/injection, schedule: Q01DX001 (ip), vehicle: Klucel (hydroxypropylcellulose) (HPC) 120 % of control
